Laboratory results published in US6376510B1, “Neuromuscular relaxants” (Newlaxant LLC, priority 1997, dated 2002).

Experiments:
[1] = test system: anesthetized rats (evoked responses of anterior tibial muscle); test: In vivo neuromuscular block and cardiovascular side effects, anesthetized rat (Example 8, Table 3); details: rat; for VB (vagal block) / ΔBP (change in arterial blood pressure) / ΔH (change in heart rate): in vivo; for ED50: intravenous dose causing 50% neuromuscular block; for RI (recovery index): spontaneous recovery, 25-75% neuromuscular response; for Onset: time to 80-85% neuromuscular block
Excerpt: The neuromuscular blocking activity and other effects (e.g. cardiovascular side effects) of selected agents were investigated on several different experimental animals. Justification for this approach lies in the commonly known fact that the pharmacodynamic and pharmacokinetic properties of these agents are markedly variable from species to species. Therefore, the most important aspects of the projected therapeutic utility of these agents, e.g., neuromuscular blocking potency, onset and duration of action, and side effects cannot be ascertained in “in vitro” preparations or by using only one species of animals.
a) Adult, male albino rats were anesthetized with pentobarbital injected intraperitoneally. The trachea was cannulated for artificial respiration via a small animal respirator. The carotid artery was cannulated for recording blood pressure via a transducer and heart rate by a cardiotachograph on a polygraph. One external jugular vein was cannulated for i.v. drug administration. Neuromuscular function was monitored by electromyography, recording evoked responses from the anterior tibial muscle as a result of supramaximal nerve stimuli consisting of single or “train-of-four” rectangular pulses of 0.1-0.2 msec duration every 10-12 seconds, delivered to the sciatic or common peroneal nerve by a laboratory nerve stimulator. Another mode of stimulation included repeated single stimuli delivered at 0.1 Hz or 1 Hz. […] The agents were dissolved in physiologic saline and injected intravenously at appropriate time intervals. The intensity, onset, and duration of neuromuscular block and its type were determined with each agent. Through administering several doses, the doses corresponding to 50%, 80% and 90% neuromuscular block were determined. All agents were compared with selected standard neuromuscular blocking compounds, e.g. succinylcholine, pancuronium, mivacurium, or rocuronium.
Onset=time in minutes to 80-85% neuromuscular block.
RI=recovery index, minutes, spontaneous recovery, 25-75% neuromuscular response.
VB=vagal block, %, at 80-85% neuromuscular blocking dose.
ΔHR=change in heart rate, %, at 80-85% neuromuscular blocking dose.
ΔBP=change in arterial blood pressure, %, at 80-85% neuromuscular blocking dose.

[2] = test system: anesthetized juvenile pigs; test: animal or person; type: in vivo; details: pig; for VB (vagal block) / ΔBP (change in arterial blood pressure) / ΔH (change in heart rate): in vivo; for ED50: intravenous dose causing 50% neuromuscular block; for RI (recovery index): spontaneous recovery, 25-75% neuromuscular response; for Onset: time to 80-85% neuromuscular block
Excerpt: Both electromyographic and mechanomyographic responses can be quantified.
The techniques described under a) and b) were employed in other species as needed with the modification that juvenile pigs were initially anesthetized with inhalation of halothane (Table 5) and monkeys were initially sedated with intramuscular ketamine injections prior to inducing and maintaining general anesthesia using pentobarbital and propofol administered intravenously (Table 6).

rabbits = test: In vivo neuromuscular block and cardiovascular side effects, rabbit (Example 8, Table 7); details: for ΔBP (change in arterial blood pressure) / ΔH (change in heart rate): in vivo; for ED50: intravenous dose causing 50% neuromuscular block; for RI (recovery index): spontaneous recovery, 25-75% neuromuscular response; for Onset: time to 80-85% neuromuscular block

VB (vagal block) [2]	SMILES	VB (vagal block) [1]	ΔBP (change in arterial blood pressure) [1]	ΔH (change in heart rate) [1]	ED50 [1]	RI (recovery index) [1]	Onset [1]	ΔBP (change in arterial blood pressure) [2]	ΔH (change in heart rate) [2]	ED50 [2]	RI (recovery index) [2]	Onset [2]	ΔBP (change in arterial blood pressure) (rabbits)	ΔH (change in heart rate) (rabbits)	ED50 (rabbits)	RI (recovery index) (rabbits)	Onset (rabbits)
43%	CCC(=O)Oc1ccc(C[N+]2(C)C3CCCC2CC(OC(=O)CCCCC(=O)OC2CC4CCCC(C2)[N+]4(C)Cc2ccc(OC(=O)CC)c(OC(=O)CC)c2)C3)cc1OC(=O)CC.[Br-].[Br-] (centres unmarked) [bis[N-(3,4-dipropionyloxybenzyl)granataninium-3-yl]adipate dibromide]	0%	−4%	0%	320 µg/kg	0.35 min	0.4 min	0%	0%	275 µg/kg	0.4 min	0.45 min	0%	0%	160 µg/kg	0.5 min	0.5 min
18%	CCC(=O)Oc1ccc(C[N+]2(C)C3CCCC2CC(OC(=O)C2CCC2C(=O)OC2CC4CCCC(C2)[N+]4(C)Cc2ccc(OC(=O)CC)c(OC(=O)CC)c2)C3)cc1OC(=O)CC.[Br-].[Br-] (centres unmarked) [bis[N-(3,4-dipropionyloxybenzyl)granataninium-3-yl]cyclobutane-1,2-dicarboxylate dibromide]	0%	0%	0%	155 µg/kg	0.35 min	0.45 min	0%	0%	190 µg/kg	0.4 min	0.5 min	0%	0%	225 µg/kg	0.5 min	0.55 min
35%	CCC(=O)Oc1ccc(C[N+]2(C)C3CCCC2CC(OC(=O)CCCC(=O)OC2CC4CCCC(C2)[N+]4(C)Cc2ccc(OC(=O)CC)c(OC(=O)CC)c2)C3)cc1OC(=O)CC.[Br-].[Br-] (centres unmarked) [bis[N-(3,4-dipropionyloxybenzyl)granataninium-3-yl]glutarate dibromide]	0%	0%	0%	260 µg/kg	0.4 min	0.55 min	0%	0%	230 µg/kg	0.65 min	0.5 min	0%	0%	135 µg/kg	0.55 min	0.7 min
30%	CCC(=O)Oc1ccc(C[N+]2(C)C3CCCC2CC(OC(=O)CCCCCC(=O)OC2CC4CCCC(C2)[N+]4(C)Cc2ccc(OC(=O)CC)c(OC(=O)CC)c2)C3)cc1OC(=O)CC.[Br-].[Br-] (centres unmarked) [bis[N-(3,4-dipropionyloxybenzyl)granataninium-3-yl]pimelate dibromide]	2%	−6%	−3%	450 µg/kg	0.35 min	0.5 min	0%	0%	700 µg/kg	0.5 min	0.5 min	0%	0%	500 µg/kg	0.4 min	0.45 min
